Data: PubChem BioAssay AID248 (DTP/NCI, 2004)
“And” between values parts separate entries of the source, which are not always exact repeats. Identical values can stand only once. Inconclusive results and toxic doses are left out. Cut-off read from the data, not from the text of the source: active = T/C of 150% or more; inactive = T/C below 125%.

System: L1210 leukemia ip in BDF1 mice, survival T/C
Test: NCI In Vivo Anticancer Drug Screen. Data for tumor model L1210 Leukemia (intraperitoneal) in B6D2F1 (BDF1) mice
Details: endpoint: mean survival time, higher = longer survival
In short: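 Transplanted-tumor mice were given test agent; controls received vehicle only. Survival readings from the two groups were divided (treated over control).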

[1] = dose: 12.5 mg/kg/injection, schedule: Q01DX009 (ip), vehicle: saline with Tween-80
[2] = dose: 100.0 mg/kg/injection, schedule: Q04DX002 (ip), vehicle: saline with Tween-80
[3] = dose: 200.0 mg/kg/injection, schedule: Q01DX009 (ip), vehicle: saline with Tween-80
[4] = dose: 200.0 mg/kg/injection, schedule: Q04DX002 (ip), vehicle: saline with Tween-80
[5] = dose: 400.0 mg/kg/injection, schedule: Q01DX009 (ip), vehicle: saline with Tween-80
[6] = dose: 400.0 mg/kg/injection, schedule: Q04DX002 (ip), vehicle: saline with Tween-80
[7] = dose: 400.0 mg/kg/injection, schedule: Q04DX003 (ip), vehicle: saline with Tween-80
[8] = dose: 100.0 mg/kg/injection, schedule: Q01DX009 (ip), vehicle: Klucel (hydroxypropylcellulose) (HPC)
[9] = dose: 100.0 mg/kg/injection, schedule: Q01DX001 (ip), vehicle: saline
[10] = dose: 200.0 mg/kg/injection, schedule: Q01DX001 (ip), vehicle: saline
[11] = dose: 400.0 mg/kg/injection, schedule: Q01DX001 (ip), vehicle: saline
[12] = dose: 100.0 mg/kg/injection, schedule: Q01DX009 (ip), vehicle: saline with Tween-80
[13] = dose: 100.0 mg/kg/injection, schedule: Q04DX003 (ip), vehicle: saline with Tween-80
[14] = dose: 200.0 mg/kg/injection, schedule: Q01DX009 (ip), vehicle: Klucel (hydroxypropylcellulose) (HPC)
[15] = dose: 100.0 mg/kg/injection, schedule: Q01DX009 (ip), vehicle: saline
[16] = dose: 100.0 mg/kg/injection, schedule: Q04DX003 (ip), vehicle: saline
[17] = dose: 200.0 mg/kg/injection, schedule: Q01DX009 (ip), vehicle: saline
[18] = dose: 200.0 mg/kg/injection, schedule: Q04DX003 (ip), vehicle: saline
[19] = dose: 400.0 mg/kg/injection, schedule: Q01DX009 (ip), vehicle: saline
[20] = dose: 400.0 mg/kg/injection, schedule: Q04DX003 (ip), vehicle: saline
[21] = dose: 400.0 mg/kg/injection, schedule: Q01DX009 (ip), vehicle: Klucel (hydroxypropylcellulose) (HPC)

Measured: T/C

O=C(NC(=S)Nc1cc(C(F)(F)F)ccc1Cl)c1ccccc1F
inactive: [1] 93 % of control and 97 % of control | dose: 100.0 mg/kg/injection, schedule: Q01DX001 (ip), vehicle: saline with Tween-80 104 % of control | [2] 97 % of control and 100 % of control | dose: 200.0 mg/kg/injection, schedule: Q01DX001 (ip), vehicle: saline with Tween-80 102 % of control | [3] 86 % of control | [4] 93 % of control and 97 % of control | dose: 400.0 mg/kg/injection, schedule: Q01DX001 (ip), vehicle: saline with Tween-80 102 % of control | [5] 95 % of control | [6] 100 % of control and 91 % of control | [7] 87 % of control

NCCCCCCN=C(N)C(N)=NCCCCCCN
inactive: dose: 1.5 mg/kg/injection, schedule: Q01DX009 (ip), vehicle: Klucel (hydroxypropylcellulose) (HPC) 96 % of control | dose: 3.0 mg/kg/injection, schedule: Q01DX009 (ip), vehicle: Klucel (hydroxypropylcellulose) (HPC) 112 % of control | dose: 6.0 mg/kg/injection, schedule: Q01DX009 (ip), vehicle: Klucel (hydroxypropylcellulose) (HPC) 102 % of control | dose: 12.5 mg/kg/injection, schedule: Q04DX003 (ip), vehicle: Klucel (hydroxypropylcellulose) (HPC) 93 % of control | dose: 25.0 mg/kg/injection, schedule: Q04DX003 (ip), vehicle: Klucel (hydroxypropylcellulose) (HPC) 93 % of control

O=C(O)/C=C/c1nc2ccccc2c(=O)[nH]1
inactive: dose: 50.0 mg/kg/injection, schedule: Q01DX009 (ip), vehicle: Klucel (hydroxypropylcellulose) (HPC) 114 % of control | [8] 100 % of control

Cc1cccc(C=O)c1
inactive: [9] 102 % of control | [10] 96 % of control | [11] 96 % of control

O=C(Nc1ccccn1)c1cc(N2CCOCC2)ccn1
inactive: [9] 102 % of control

Cc1ccc(S(=O)(=O)N(CCC(=O)O)Cc2ccccc2)cc1
inactive: dose: 100.0 mg/kg/injection, schedule: Q01DX001 (ip), vehicle: carboxymethylcellulose (CMC) 121 % of control | dose: 200.0 mg/kg/injection, schedule: Q01DX001 (ip), vehicle: carboxymethylcellulose (CMC) 103 % of control | dose: 400.0 mg/kg/injection, schedule: Q01DX001 (ip), vehicle: carboxymethylcellulose (CMC) 108 % of control

Cc1ccc(Cl)cc1NC(=O)c1ccc([N+](=O)[O-])cc1
inactive: dose: 50.0 mg/kg/injection, schedule: Q01DX009 (ip), vehicle: saline with Tween-80 91 % of control | [12] 86 % of control

CC(Cl)(/N=N/C(C)(Cl)c1cccc(Cl)c1)c1ccc(Cl)cc1 (centres undefined)
inactive: [13] 94 % of control

CCOC(=O)/C(C#N)=C\C=C\c1ccccc1
inactive: [8] 92 % of control | dose: 100.0 mg/kg/injection, schedule: Q04DX003 (ip), vehicle: Klucel (hydroxypropylcellulose) (HPC) 96 % of control | [14] 98 % of control | dose: 200.0 mg/kg/injection, schedule: Q04DX003 (ip), vehicle: Klucel (hydroxypropylcellulose) (HPC) 98 % of control | dose: 400.0 mg/kg/injection, schedule: Q04DX003 (ip), vehicle: Klucel (hydroxypropylcellulose) (HPC) 102 % of control

COC(=O)C1(C)CCC(c2ccc(OC)cc2)CC1=O (centres undefined)
inactive: [15] 93 % of control | [16] 92 % of control | [17] 88 % of control | [18] 95 % of control | [19] 90 % of control | [20] 88 % of control

COc1cc2cc(C)c(C)cc2cc1OC
inactive: dose: 100.0 mg/kg/injection, schedule: Q01DX001 (ip), vehicle: Klucel (hydroxypropylcellulose) (HPC) 98 % of control | [8] 103 % of control | dose: 200.0 mg/kg/injection, schedule: Q01DX001 (ip), vehicle: Klucel (hydroxypropylcellulose) (HPC) 101 % of control | [14] 110 % of control | dose: 400.0 mg/kg/injection, schedule: Q01DX001 (ip), vehicle: Klucel (hydroxypropylcellulose) (HPC) 98 % of control | [21] 109 % of control

Cc1cccc(Cl)c1NC(=O)N(Cc1ccccc1)Cc1ccccc1
inactive: [8] 100 % of control | [14] 105 % of control | [21] 97 % of control

CCOC(=O)CNc1ccc(F)c(Cl)c1
inactive: dose: 100.0 mg/kg/injection, schedule: Q04DX002 (ip), vehicle: Klucel (hydroxypropylcellulose) (HPC) 106 % of control and 108 % of control | dose: 200.0 mg/kg/injection, schedule: Q04DX002 (ip), vehicle: Klucel (hydroxypropylcellulose) (HPC) 98 % of control and 112 % of control | dose: 400.0 mg/kg/injection, schedule: Q04DX002 (ip), vehicle: Klucel (hydroxypropylcellulose) (HPC) 102 % of control | dose: 600.0 mg/kg/injection, schedule: Q04DX002 (ip), vehicle: Klucel (hydroxypropylcellulose) (HPC) 98 % of control

O=C(Nc1cccc(C2=NCCN2)c1)c1ccc2ccc(C(=O)Nc3cccc(C4=NCCN4)c3)cc2c1
inactive: dose: 15.0 mg/kg/injection, schedule: Q01DX Z (ip), vehicle: carboxymethylcellulose (CMC) 111 % of control | dose: 30.0 mg/kg/injection, schedule: Q01DX Z (ip), vehicle: carboxymethylcellulose (CMC) 102 % of control | dose: 60.0 mg/kg/injection, schedule: Q01DX Z (ip), vehicle: carboxymethylcellulose (CMC) 106 % of control | dose: 120.0 mg/kg/injection, schedule: Q01DX Z (ip), vehicle: carboxymethylcellulose (CMC) 113 % of control | dose: 125.0 mg/kg/injection, schedule: Q01DX Z (ip), vehicle: water 118 % of control

CC(=O)C(C)[P+](c1ccccc1)(c1ccccc1)c1ccccc1 (centres undefined)
inactive: dose: 6.25 mg/kg/injection, schedule: Q01DX009 (ip), vehicle: water 104 % of control | dose: 12.5 mg/kg/injection, schedule: Q01DX009 (ip), vehicle: water 95 % of control | dose: 12.5 mg/kg/injection, schedule: Q04DX003 (ip), vehicle: water 102 % of control | dose: 25.0 mg/kg/injection, schedule: Q01DX009 (ip), vehicle: water 102 % of control | dose: 25.0 mg/kg/injection, schedule: Q04DX003 (ip), vehicle: water 100 % of control | dose: 50.0 mg/kg/injection, schedule: Q01DX009 (ip), vehicle: water 96 % of control

CC1(C)CC(=O)C=C(N)C1
inactive: [13] 97 % of control | dose: 200.0 mg/kg/injection, schedule: Q04DX003 (ip), vehicle: saline with Tween-80 92 % of control | [7] 95 % of control

CSc1ncnc2c1cnn2C1OC(CCC#N)C(O)C1O (centres undefined)
inactive: [9] 97 % of control | [10] 98 % of control

O/N=C(/Cc1ccccc1)CC(O)(C(F)(F)F)C(F)(F)F
inactive: [9] 110 % of control | [15] 95 % of control | [10] 95 % of control | [17] 102 % of control | [11] 89 % of control | [19] 95 % of control

N#CC(C#N)N=O (tested in a mixture with another compound)
inactive: dose: 25.0 mg/kg/injection, schedule: Q04DX002 (ip), vehicle: saline 89 % of control | dose: 50.0 mg/kg/injection, schedule: Q04DX002 (ip), vehicle: saline 101 % of control | dose: 100.0 mg/kg/injection, schedule: Q04DX002 (ip), vehicle: saline 95 % of control and 97 % of control | dose: 200.0 mg/kg/injection, schedule: Q04DX002 (ip), vehicle: saline 105 % of control

CC(=O)c1c(O)c(Br)c(C)oc1=O (tested in a mixture with another compound)
inactive: dose: 6.25 mg/kg/injection, schedule: Q01DX009 (ip), vehicle: saline with Tween-80 89 % of control | [1] 100 % of control | dose: 25.0 mg/kg/injection, schedule: Q01DX009 (ip), vehicle: saline with Tween-80 93 % of control

COC(=O)CNC(=O)C1CSC(C)(C)N1C=O (centres undefined)
inactive: [16] 104 % of control | [18] 101 % of control | [20] 98 % of control

Cc1ccccc1C(C)(O)c1cnc(C)n1Cc1ccccc1 (centres undefined)
inactive: [12] 94 % of control and 98 % of control | [2] 97 % of control and 103 % of control | [3] 95 % of control and 103 % of control | [4] 97 % of control and 100 % of control | [5] 98 % of control and 100 % of control | [6] 95 % of control and 101 % of control
